Results as given in patent publication US20230292743A1, “Method for increasing the lifespan and motility of animal sperm using an inhibitor of Slo3 potassium channel” (IMV TECHNOLOGIES, priority 2017, published 2023).

Experiments:
Assay type in all cases: cell-based
[1] = test system: mouse sperm; experiment: Ability of mouse sperm to fertilize oocytes after incubation in capacitation medium (in vitro fertilization, 2-cell embryos); details: vs control; for percentage of 2-cell embryos vs mature MII oocytes at 24 h post fertilization: 12 hours incubation prior fertilization; for percentage of 2-cell embryos vs mature oocytes at 48 h post fertilization: 5 μM clofilium in M16-BSA medium
Procedure: Mouse sperm was obtained by manual trituration of caudae epididymides from male and were allowed to swim in M2 medium (from Sigma) for 10 minutes. The M2 medium composition in g/L is as follows: CaCl2 0.25; MgSO4 (anhydrous) 0.1649; KCl 0.35635; K2HPO4 0.162; NaHCO3 0.35; NaCl 5.53193; Albumin, Bovine Fraction V 4.0; D-Glucose 1.0; HEPES (for 4-(2-HydroxyEthyl)-1-Piperazine EthaneSulfonic acid)×Na 5.42726; Pyruvic Acid×Na 0.0363; DL-Lactic Acid×Na 2.95). Sperm were then capacitated in M16 medium (from Sigma) with 2% fatty acid-free BSA (for Bovine Serum Albumin) (named “M16-BSA medium”) at 37° C. in a 5% v/v CO2 incubator for different times as specified. M16 medium is a commercial and commonly used medium for in vitro fertilization and culture of preimplantation stage embryos. Oocytes were collected from mature OF1 females, synchronized with 5 units of pregnant mare serum gonadotrophin (PMSG) and 5 units of human chorionic gonadotrophin (HCG). Cumulus were harvested directly from the ampulla and sperm were injected into the M16 droplets containing the cumulus. 1. The first test related to the ability of mouse sperm to fertilize oocytes when incubated prior fertilization in a capacitation medium containing clofilium with regard to a control medium, which is the same capacitation medium but without clofilium. The capacitation medium was M16-BSA medium. The control medium was the M16-BSA medium containing the sperm. It was compared to the same medium further including clofilium at a concentration of 5 μM (in the M16-BSA medium containing the sperm). Sperm was incubated in M16-BSA medium with or without clofilium and then added to M16 droplets containing the cumulus comprising the oocytes. Two-cell embryos were counted at 48 h post insemination (n=3). The number of oocytes reaching the two-cell stage were counted at 48 hours after fertilization. Two different concentrations of clofilium were tested: 0.2 μM of clofilium and 5 μM of clofilium (in the M16-BSA medium containing the sperm). The sperm incubation time prior fertilization was 12 hours. The test related to the ability of mouse sperm to fertilize oocytes, sperm being incubated prior fertilization in a medium containing quinidine with regard to a control medium, without quinidine. The control medium was the M16-BSA medium containing the sperm (“control”). It was compared to the same medium further including quinidine, at various concentrations 5 μM quinidine (“5 μM quinidine”), 10 μM quinidine (“10 μM quinidine”), 25 μM quinidine (“25 μM quinidine”) and 100 μM quinidine (“100 μM quinidine”).

[2] = test system: bovine sperm; experiment: Bovine sperm motility by CASA analysis (VCL, total motility) after 24 h in capacitation medium; details: 24 h in capacitation medium at 37° C., vs control
Procedure: For motility, sperm were incubated with 0.2, 0.5, 1 and 5 μM clofilium diluted in the capacitation medium for 24 hours at 37° C. under saturated humidity. Sperm motility was measured using Computer Assisted Semen Analysis (CASA analysis). The CASA analysis was performed using a CEROS™, Hamilton Thorne Bioscience, USA. VCL (curvilinear velocity) was then measured. 2. The viability of the capacitated sperm was determined by the measurement of the sperm motility. The motility analysis was carried out as in Example 1.3. The first results are shown in FIGS. 6A and 6B, which illustrates the motility (in terms of VCL, in μm/s), i.e. the sperm velocity, sperm being incubated 24 h in a capacitation medium prior CASA, for each of the solutions tested: control (“[0 μM]”), 0.2 μM clofilium (“[0.2 μM]”), 0.5 μM clofilium (“[0.5 μM]” or “[0.5]”), 1 μM clofilium (“[1 μM]” or “[1]”) and 5 μM clofilium (“[5 μM]” or “[5]”) (FIG. 6A) and which illustrates the total motility (%), for each of the solutions tested “[0μM ]”, “[0.2 μM]” (or “[0.2]”), “[0.5 μM ]” (or “[0.5]”), “[1 μM ]” (or “[1]”) and “[5 μM ]” (or “[5]”) (FIG. 6B). As known to the skilled person, the “total motility”indicates the overall percentage of sperm that are moving in any direction (VAP>1μm/s).

[3] = test system: bovine sperm; experiment: CASA motility of bovine sperm subpopulation with VCL >150 μm/s, sperm frozen with clofilium; details: bovine sperm frozen with 0.2 μM clofilium, 24 h in capacitation medium with 0.2 μM clofilium, vs control
Procedure: However, only sperm presenting a sufficient velocity are able to cross the protective layers surrounding the egg and thus are competent for fertilizing eggs. To take this into account, sperm presenting a VCL >150 μm/s were selected and their velocity measured at different time (0 h and 24 h) in control condition or in the presence of clofilium. Sperm were frozen without clofilium (control) and with clofilium prior to test their motility. In the second case, clofilium was present during the sperm incubation period and during the capacitation period. Bovine ejaculate was split into two fractions, and diluted 1:1 in either Optixcell (Fraction 1) or Optixcell containing clofilium 0.2 μM (Fraction 2). After 10 minutes of 34° C. incubation, semen was then diluted to a final concentration of 57 million of spermatozoa/ml in Optixcell (Fraction 1) or Optixcell containing clofilium 0.2 μM (Fraction 2). Diluted semen was frozen as described above and stored in liquid nitrogen until in vitro fertilization. Thus, two types of straws were used: control straws and straws containing clofilium (0.2 μM ). Straws were thawed in a water-bath at 37° C. for 45 s. Each straw was wiped with 70° ethanol before opening. […] Spermatozoa presenting a VCL >150 μm/s were selected and their motility was measured using CASA, performed as above in control condition or in the presence of clofilium. […]

CCCCCCC[N+](CC)(CC)CCCCc1ccc(Cl)cc1 [clofilium]
percentage of 2-cell embryos vs mature MII oocytes at 24 h post fertilization ([1]; 0.2 μM clofilium): improves the mouse in vitro fertilization outcome
percentage of 2-cell embryos vs mature oocytes at 48 h post fertilization ([1]; 3 h incubation period prior fertilization): not significantly different than that of control
percentage of 2-cell embryos vs mature oocytes at 48 h post fertilization ([1]; long incubation periods (>3 hours) prior fertilization): higher number of 2-cell stages than what was observed with the control
percentage of 2-cell embryos vs mature oocytes at 48 h post fertilization ([1]; short incubation periods (<3 hours) prior fertilization): positive effect
percentage of 2-cell embryos vs mature MII oocytes at 24 h post fertilization ([1]; 5 μM clofilium): potent
motility (in terms of VCL), sperm velocity ([2]; 0.2 μM clofilium): higher velocity than the non-treated
motility (in terms of VCL), sperm velocity ([2]; 0.5 μM clofilium): higher velocity than the non-treated
motility (in terms of VCL), sperm velocity ([2]; 1 μM clofilium): higher velocity than the non-treated
motility (in terms of VCL) of sperm subpopulation with VCL >150 μm/s [3]: higher mean velocity
